According to article doi:10.1101/2021.02.21.432137v1 (biorxiv, 2021):

How the values were obtained:
Details in all cases: binder
[1] = target: BMPR1B (Homo sapiens, UniProt O00238)
[2] = target: CSNK2A1 (Homo sapiens, UniProt P68400)
[3] = target: T1, JAK3 (Homo sapiens, UniProt P52333)
T1 sequence (P52333 1-1124): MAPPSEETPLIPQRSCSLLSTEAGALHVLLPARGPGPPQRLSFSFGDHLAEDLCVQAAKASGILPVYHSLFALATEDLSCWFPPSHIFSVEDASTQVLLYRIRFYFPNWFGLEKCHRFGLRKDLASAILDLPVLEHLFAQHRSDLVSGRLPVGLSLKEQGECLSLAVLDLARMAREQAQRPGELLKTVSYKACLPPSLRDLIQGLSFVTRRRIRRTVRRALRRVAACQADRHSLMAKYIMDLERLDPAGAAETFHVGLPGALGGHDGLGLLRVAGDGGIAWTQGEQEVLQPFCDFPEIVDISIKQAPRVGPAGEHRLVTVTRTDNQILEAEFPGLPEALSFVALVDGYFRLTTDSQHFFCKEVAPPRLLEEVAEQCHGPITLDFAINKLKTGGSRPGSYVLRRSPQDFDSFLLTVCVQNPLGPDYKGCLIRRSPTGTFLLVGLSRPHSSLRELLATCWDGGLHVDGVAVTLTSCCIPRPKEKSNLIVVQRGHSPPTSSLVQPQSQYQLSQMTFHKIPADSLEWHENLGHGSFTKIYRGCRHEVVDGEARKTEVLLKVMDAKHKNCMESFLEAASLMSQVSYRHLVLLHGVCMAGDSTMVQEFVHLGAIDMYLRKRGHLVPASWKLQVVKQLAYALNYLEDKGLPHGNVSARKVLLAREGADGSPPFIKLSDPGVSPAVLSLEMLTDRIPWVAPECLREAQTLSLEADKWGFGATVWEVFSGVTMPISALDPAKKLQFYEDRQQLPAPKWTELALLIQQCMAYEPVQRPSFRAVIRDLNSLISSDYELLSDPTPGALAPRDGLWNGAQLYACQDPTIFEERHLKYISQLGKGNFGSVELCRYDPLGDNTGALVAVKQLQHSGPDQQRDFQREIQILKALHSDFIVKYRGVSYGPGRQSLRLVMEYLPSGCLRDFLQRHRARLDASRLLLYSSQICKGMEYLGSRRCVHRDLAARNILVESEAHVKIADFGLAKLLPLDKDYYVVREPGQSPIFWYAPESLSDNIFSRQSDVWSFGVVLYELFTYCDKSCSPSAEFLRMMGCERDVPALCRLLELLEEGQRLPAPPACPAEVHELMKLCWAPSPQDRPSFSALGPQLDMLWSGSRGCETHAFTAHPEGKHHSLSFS

[4] = target: LRRK2 (G2019S) (Homo sapiens, UniProt Q5S007, G2019S)
[5] = target: T2, NUAK1 (Homo sapiens, UniProt O60285)
T2 sequence (O60285 1-661): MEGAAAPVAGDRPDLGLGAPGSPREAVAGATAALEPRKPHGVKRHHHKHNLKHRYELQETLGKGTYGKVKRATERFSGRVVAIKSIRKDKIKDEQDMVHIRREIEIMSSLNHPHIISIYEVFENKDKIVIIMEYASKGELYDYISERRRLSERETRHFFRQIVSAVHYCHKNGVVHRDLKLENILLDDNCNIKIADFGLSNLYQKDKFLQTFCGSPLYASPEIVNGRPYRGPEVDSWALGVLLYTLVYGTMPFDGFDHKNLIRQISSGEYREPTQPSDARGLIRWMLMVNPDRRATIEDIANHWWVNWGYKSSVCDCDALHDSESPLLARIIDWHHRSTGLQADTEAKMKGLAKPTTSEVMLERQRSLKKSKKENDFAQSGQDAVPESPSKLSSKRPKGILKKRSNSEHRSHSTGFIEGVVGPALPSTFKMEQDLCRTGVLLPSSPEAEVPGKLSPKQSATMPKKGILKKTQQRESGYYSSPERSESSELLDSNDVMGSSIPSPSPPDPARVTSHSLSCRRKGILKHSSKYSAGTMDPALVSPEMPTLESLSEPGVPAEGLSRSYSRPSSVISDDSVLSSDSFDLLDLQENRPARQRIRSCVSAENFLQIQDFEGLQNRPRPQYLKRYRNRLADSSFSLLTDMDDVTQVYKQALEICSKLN

[6] = target: T3, NUAK2 (Homo sapiens, UniProt Q9H093)
T3 sequence (Q9H093 1-628): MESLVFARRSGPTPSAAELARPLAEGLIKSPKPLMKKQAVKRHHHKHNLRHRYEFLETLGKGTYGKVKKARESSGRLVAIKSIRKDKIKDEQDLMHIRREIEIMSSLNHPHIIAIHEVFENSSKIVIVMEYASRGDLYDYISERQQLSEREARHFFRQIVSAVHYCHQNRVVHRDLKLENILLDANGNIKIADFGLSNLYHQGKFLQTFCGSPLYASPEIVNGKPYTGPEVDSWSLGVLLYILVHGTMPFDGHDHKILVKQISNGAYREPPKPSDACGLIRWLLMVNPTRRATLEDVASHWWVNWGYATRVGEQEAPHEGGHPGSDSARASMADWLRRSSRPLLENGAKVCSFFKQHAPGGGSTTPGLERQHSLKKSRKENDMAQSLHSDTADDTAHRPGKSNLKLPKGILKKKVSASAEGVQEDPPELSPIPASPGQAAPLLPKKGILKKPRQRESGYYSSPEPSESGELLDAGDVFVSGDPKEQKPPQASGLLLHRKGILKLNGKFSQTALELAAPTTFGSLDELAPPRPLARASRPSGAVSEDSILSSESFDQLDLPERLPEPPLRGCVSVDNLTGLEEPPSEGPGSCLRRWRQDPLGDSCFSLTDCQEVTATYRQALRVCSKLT

[7] = target: RIOK2 (Homo sapiens, UniProt Q9BVS4)
RIOK2, sequence (Q9BVS4 whole entry): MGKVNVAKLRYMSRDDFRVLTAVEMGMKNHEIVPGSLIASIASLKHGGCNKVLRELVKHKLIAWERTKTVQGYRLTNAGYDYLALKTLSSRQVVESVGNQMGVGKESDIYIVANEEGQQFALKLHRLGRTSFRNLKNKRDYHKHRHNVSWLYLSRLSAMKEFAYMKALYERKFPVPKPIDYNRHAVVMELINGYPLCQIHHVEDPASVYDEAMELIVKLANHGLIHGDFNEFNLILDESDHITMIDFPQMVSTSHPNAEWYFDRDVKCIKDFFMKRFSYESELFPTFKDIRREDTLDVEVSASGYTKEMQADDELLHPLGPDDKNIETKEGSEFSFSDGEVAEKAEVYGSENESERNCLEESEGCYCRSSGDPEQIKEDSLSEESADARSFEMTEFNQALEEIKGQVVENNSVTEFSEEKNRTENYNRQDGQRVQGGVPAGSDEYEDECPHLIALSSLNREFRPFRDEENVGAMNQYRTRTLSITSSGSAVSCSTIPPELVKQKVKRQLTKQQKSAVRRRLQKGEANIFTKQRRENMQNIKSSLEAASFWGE

[8] = target: TYK2 (Homo sapiens, UniProt P29597)
TYK2, sequence (P29597 whole entry): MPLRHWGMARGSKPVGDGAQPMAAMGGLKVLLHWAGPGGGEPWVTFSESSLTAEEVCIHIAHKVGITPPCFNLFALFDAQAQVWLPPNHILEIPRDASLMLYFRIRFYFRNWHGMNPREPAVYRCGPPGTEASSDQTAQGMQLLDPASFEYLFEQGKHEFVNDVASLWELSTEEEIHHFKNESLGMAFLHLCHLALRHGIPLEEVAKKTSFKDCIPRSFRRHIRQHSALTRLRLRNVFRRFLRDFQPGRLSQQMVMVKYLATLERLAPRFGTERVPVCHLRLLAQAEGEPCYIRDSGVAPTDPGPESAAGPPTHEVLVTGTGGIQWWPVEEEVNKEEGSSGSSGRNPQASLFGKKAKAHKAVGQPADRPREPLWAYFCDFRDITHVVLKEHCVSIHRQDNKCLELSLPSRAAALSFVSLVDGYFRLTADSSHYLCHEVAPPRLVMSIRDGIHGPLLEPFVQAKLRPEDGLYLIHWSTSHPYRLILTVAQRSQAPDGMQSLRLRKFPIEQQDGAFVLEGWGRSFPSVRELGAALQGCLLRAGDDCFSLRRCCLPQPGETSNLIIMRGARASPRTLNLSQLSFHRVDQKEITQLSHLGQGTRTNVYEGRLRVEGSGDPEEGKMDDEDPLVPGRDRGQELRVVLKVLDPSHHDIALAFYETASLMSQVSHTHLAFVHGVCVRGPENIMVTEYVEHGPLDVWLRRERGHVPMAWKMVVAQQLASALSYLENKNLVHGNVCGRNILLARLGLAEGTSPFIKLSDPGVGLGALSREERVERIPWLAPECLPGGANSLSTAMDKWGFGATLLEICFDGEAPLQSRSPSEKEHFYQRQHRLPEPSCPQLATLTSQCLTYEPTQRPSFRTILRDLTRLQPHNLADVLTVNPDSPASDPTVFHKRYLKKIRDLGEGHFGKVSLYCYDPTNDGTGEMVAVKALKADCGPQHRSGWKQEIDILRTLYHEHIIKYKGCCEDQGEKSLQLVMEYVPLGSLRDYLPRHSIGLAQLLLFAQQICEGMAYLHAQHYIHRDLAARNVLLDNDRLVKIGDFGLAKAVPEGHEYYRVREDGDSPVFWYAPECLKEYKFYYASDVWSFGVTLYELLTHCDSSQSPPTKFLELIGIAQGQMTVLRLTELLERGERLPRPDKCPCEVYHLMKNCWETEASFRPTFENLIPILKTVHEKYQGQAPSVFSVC

CSNK2A1, sequence (P68400 whole entry): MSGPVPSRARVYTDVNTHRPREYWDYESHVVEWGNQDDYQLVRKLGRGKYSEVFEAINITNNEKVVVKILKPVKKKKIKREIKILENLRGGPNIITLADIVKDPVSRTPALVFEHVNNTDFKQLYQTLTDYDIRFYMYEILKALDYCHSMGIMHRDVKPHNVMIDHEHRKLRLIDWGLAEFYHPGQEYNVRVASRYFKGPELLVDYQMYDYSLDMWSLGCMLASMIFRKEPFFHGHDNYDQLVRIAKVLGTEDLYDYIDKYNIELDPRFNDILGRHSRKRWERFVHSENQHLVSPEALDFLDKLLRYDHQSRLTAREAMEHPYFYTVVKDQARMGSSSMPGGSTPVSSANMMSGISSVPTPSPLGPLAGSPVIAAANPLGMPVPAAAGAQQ
BMPR1B, sequence (O00238 whole entry): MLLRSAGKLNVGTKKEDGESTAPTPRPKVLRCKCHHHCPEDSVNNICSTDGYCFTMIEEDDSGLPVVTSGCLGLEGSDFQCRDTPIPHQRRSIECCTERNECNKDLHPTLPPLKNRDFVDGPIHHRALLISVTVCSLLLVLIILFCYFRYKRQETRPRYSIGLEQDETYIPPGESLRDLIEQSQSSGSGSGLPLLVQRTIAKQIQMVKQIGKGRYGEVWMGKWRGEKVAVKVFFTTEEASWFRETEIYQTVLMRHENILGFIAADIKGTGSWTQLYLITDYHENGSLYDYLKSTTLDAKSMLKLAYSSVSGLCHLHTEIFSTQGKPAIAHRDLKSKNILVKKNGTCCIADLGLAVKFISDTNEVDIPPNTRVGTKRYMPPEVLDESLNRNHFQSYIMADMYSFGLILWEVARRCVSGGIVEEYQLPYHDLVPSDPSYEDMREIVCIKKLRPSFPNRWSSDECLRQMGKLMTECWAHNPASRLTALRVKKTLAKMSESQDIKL

Compound A1 PoC [1]: 1.8%
Compound A1 PoC [2]: 0%
Compound A1 PoC [3]: 0.7%
Compound A1 PoC [4]: 7.5%
Compound A1 PoC [5]: 4.1%
Compound A1 PoC [6]: 1.2%
Compound A1 PoC [7]: 0%
Compound A1 PoC [8]: 6.9%
SMILES: C[C@H](NC(=O)c1c[nH]c2ncc(C3CC3)nc12)C(C)(C)C [A1, UNC-BE4-017]
